Values after ≈ are worked out from the molar mass of the structure shown.
How the values were obtained:
H. influenzae ATCC 49247 [1] = assay: MIC assay; format: cell-based; details: Haemophilus influenzae, ATCC49247
Excerpt: 5. Haemophilus influenzae ATCC 49247—a member of the genus Haemophilus, these organisms are Gram-negative bacilli which grow under aerobic or anaerobic conditions but require media with special supplements for laboratory culture. Strains of H. influenzae may be capsulated or non-capsulated. The capsulate strains are divided into serotypes, (designated b,c,d,e,f), on the basis of capsular antigens. The serotype H. influenzae type b is an important cause of invasive infections in humans, particularly in young children. The non-capsulate strains are common commensals in the upper respiratory tract, although there are also some healthy carriers of the type b strain. In the context of skin and topical treatments, H. influenzae can be a cause of cellulitis and otitis media (middle ear infection), again particularly in young children. […]
(§1) This is a standard international method for quantitatively assessing the antimicrobial activity of a compound in a liquid medium. […]
(§2) The wells were inoculated with a liquid suspension of freshly grown micro-organism and incubated under the conditions described above. […] The MIC value was recorded as the lowest concentration of test compound required to inhibit microbial growth, i.e., the lowest concentration for which the liquid in the well remained clear. […]

P. granulosum PRP-044 = assay: Disc diffusion assay (DDA); format: cell-based; details: resistance MLS, 200 μg per disc
Protocol: (§3) The Propionibacterium spp organisms were cultured and maintained on Wilkins-Chalgren Anaerobe Medium (agar and broth) at pH 6.0; cultures were incubated anaerobically at 37° C. for 72 hours.
(§4) A sterile paper disc was impregnated with a sample of the test compound and a minimum of 30 minutes allowed for the solvents to evaporate as far as possible. The disc was then placed on an agar plate onto which the test micro-organism had been inoculated. The plate was then incubated under the conditions described above, following which it was examined visually for signs of bacterial growth. If the test compound had antimicrobial activity, a circular zone of no growth would be obtained around the disc. The diameter of this zone of “inhibition” was measured using a ProtoCOL™ automated zone sizer (Synbiosis, Cambridge, UK). In general, a greater diameter and/or area of the zone of inhibition indicates a greater antimicrobial activity in the relevant test compound, although other factors such as test compound mobility through the agar gel may also influence the result.
(§5) The area of the zone of inhibition was calculated from the measured zone diameter (D) using the formula π(D/2)^2.
(§6) For the DDA assays, 200 μg of TBHQ was loaded onto each disc. The solvent used for the TBHQ was ethanol.

P. granulosum PRP-043 = assay: Disc diffusion assay (DDA); format: cell-based; details: resistance MLS, 200 μg per disc
Protocol: as §3, §4, §5, §6

P. granulosum PRP-005 = assay: Disc diffusion assay (DDA); format: cell-based; details: resistance MLSK, 200 μg per disc
Protocol: as §3, §4, §5, §6

P. granulosum PRP-055 = assay: Disc diffusion assay (DDA); format: cell-based; details: resistance None, 200 μg per disc
Protocol: as §3, §4, §5, §6

H. influenzae ATCC 49247 [2] = assay: Disc diffusion assay (DDA); format: cell-based, Haemophilus influenzae; details: 200 μg per disc
Protocol: The H. influenzae strain was cultured and maintained on Haemophilus Test Medium (HTM) agar/broth (the composition of which is as described in NCCLS M7-A6 Vol. 23 No. 2); cultures were incubated in a CO2 atmosphere at 37° C. for 24 hours.
as §4, §5
The activity of TBHQ against three other bacterial strains was investigated using MIC, MBC and DDA assays as described above. […]

P. acnes NCTC 737 = assay: MBC assay; format: cell-based, Propionibacterium acnes
In short: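 Plates were then checked visually for growth. The MBC is the lowest lethal concentration; cultures were grown on Wilkins-Chalgren Anaerobe Medium at pH 6.0.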

S. pyogenes ATCC 12344 = assay: MIC assay; format: cell-based; details: Streptococcus pyogenes, ATCC12344
Excerpt: 3. Streptococcus pyogenes ATCC 12344—this is a Gram-positive […] bacterium; it is a member of the group A β-haemolytic streptococci which are occasional upper respiratory tract commensals in humans (10% of children, commensal carriage uncommon in adults, its main occurrence is as the agent of tonsillitis). It is clinically significant in the context of skin infections, being a causative agent of cellulitis, necrotising fasciitis, impetigo, erysipelas, wound infections and scarlet fever. Penicillin and erythromycin are the standard treatments for infections involving S. pyogenes. […] S. pyogenes is also a major cause of upper respiratory tract infections. […]
as §1, §2

P. acnes PRP-010 = assay: Disc diffusion assay (DDA); format: cell-based, Propionibacterium acnes; details: resistance MLSK, 200 μg per disc
Protocol: Other propionibacterial strains were also tested, as described in Example 4 below. These included certain antibiotic resistant propionibacteria, such as the two P. acnes strains designated PRP-010 and PRP-039 which are resistant respectively to macrolides-lincosamides-streptogramins-ketolides (MLSK) and to macrolides-lincosamides-streptogramins (MLS) and tetracycline—in other words, PRP-010 is resistant to erythromycin and clindamycin, and PRP-039 to erythromycin, clindamycin and tetracycline.
as §3
A sterile paper disc was impregnated with a sample of the test compound and a minimum of 30 minutes allowed for the solvents to evaporate as far as possible. The disc was then placed on an agar plate onto which the test micro-organism had been inoculated. The plate was then incubated under the conditions described above, following which it was examined visually for signs of bacterial growth. […] The diameter of this zone of “inhibition” was measured using a ProtoCOL™ automated zone sizer (Synbiosis, Cambridge, UK). […]
The area of the zone of inhibition was calculated from the measured zone diameter (D) using the formula π(D/2)^2. […]

S. aureus ATCC 29213 = assay: Disc diffusion assay (DDA); format: cell-based, Staphylococcus aureus; details: Staphylococcus aureus, ATCC29213; S. aureus ATCC 29213; unsupplemented agar; 200 μg per disc (thymoquinone 50 μg, 2,6-dimethoxy-p-benzoquinone 100 μg); read-out: DDA (diameter of zone of inhibition)
In short: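 Paper discs loaded with test compound (usually 200 μg/disc), solvent evaporated ≥30 min, placed on inoculated Mueller-Hinton agar pH 7.2. Incubated aerobically at 37 °C for 24 h; inhibition zone diameter measured and area calculated as π(D/2)^2.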

Question: For CC(C)(C)c1cc(O)ccc1O [TBHQ, 2-t-butyl hydroquinone], which MIC (H. influenzae ATCC 49247 [1]) is on record?
Answer: Its MIC is 15.6 µg/mL (≈ 93.9 µM).

Question: What about the DDA (P. granulosum PRP-044) of the same compound?
Answer: The DDA was 10.70 mm.

Question: What about the DDA (P. granulosum PRP-043) of the same compound?
Answer: The DDA was 10.56 mm.

Question: And the DDA (P. granulosum PRP-005)?
Answer: Its DDA is 0.00 mm.

Question: And the DDA (P. granulosum PRP-055)?
Answer: The DDA was 13.07 mm.

Question: And the DDA (H. influenzae ATCC 49247 [2])?
Answer: The DDA was 36.33 mm.

Question: And the MIC/MBC ratio (P. acnes NCTC 737; P. acnes NCTC 737)?
Answer: The MIC/MBC ratio was 0.5.

Question: And the MBC (P. acnes NCTC 737; P. acnes NCTC 737 (Table 6), resistance None)?
Answer: Its MBC is 15.6 µg/mL (≈ 93.9 µM).

Question: What about the MIC (S. pyogenes ATCC 12344) of the same compound?
Answer: Its MIC is 62.5 to 125 µg/mL (≈ 376 to 752 µM).

Question: What about the DDA (P. acnes PRP-010) of the same compound?
Answer: Its DDA is 18.71 mm.

Question: What about the zone of inhibition at 200 µg/disc (S. aureus ATCC 29213) of the same compound?
Answer: Its zone of inhibition at 200 µg/disc is 41.8 mm.
